Data reported in patent publication US20260070887A1 (Shenzhen Zhongge Biological Technology Co., Ltd., priority 2022, published 2026).

System: OVCAR3 tumor
Assay: OVCAR3 human ovarian cancer subcutaneous transplant tumor model
Assay type: in vivo, mouse
Settings: oral, QD, 28 days, balb/c nude mice
Source text: • I. Experimental objective: evaluation of the pharmacological effects of the reference compounds and the compounds of the present disclosure in the OVCAR3 human ovarian cancer subcutaneous transplant tumor model. • II. Experimental material: experimental female balb/c nude mice, 6-8-week old or 18-20 g, provided by Vital River Laboratory Animal Technology Co., Ltd. • III. Experimental method: Experimental animals were housed within a specific pathogen-free animal barrier facility, and the experiment was started 3 days after the animals were acclimated. The human ovarian cancer OVCAR3 tumor cells were cultured in vitro as monolayers in RPMI 1640 complete medium (supplemented with a final concentration of 20% fetal bovine serum, 1% penicillin-streptomycin dual antibiotics, and 0.01 mg/ml insulin) at 37° C. in an atmosphere containing 5% CO2. The tumor cells were routinely passaged 2-3 times per week, and the cells in the exponential growth phase were collected and counted for tumor cell inoculation. 10×10^6 OVCAR3 tumor cells were resuspended in 0.1 m1 PBS and mixed with 0.1 m1 matrigel and then subcutaneously inoculated into the right flank of each mouse to establish tumors. When the mean tumor volume of the tumor-bearing mice grew to around 100 mm^3, the appropriate tumor-bearing mice were selected for randomization and the groups were set as: blank control groups, reference compound groups, and groups of compounds of the present disclosure. Vehicles were administered orally in the blank control group, and the corresponding compounds were administered orally in the other groups for 28 days. Tumor volumes and animal weights were monitored […], twice weekly. This experiment examined the inhibitory effect of the reference compound and the compound of the present disclosure on the growth of OVCAR3 human ovarian cancer cells by monitoring the size of the tumor volume of each group after administration of the compounds.

## COc1ccc(NC(=O)c2ccc(NS(=O)(=O)CCO)cc2N2CCC3(CC2)CC3)c2cc3n(c12)CC(C)(C)OC3 [Example 455, 4-((2-hydroxyethyl)sulfonamido)-N-(6-methoxy-3,3-dimethyl-3,4-dihydro-1H-[1,4]oxazinyl[4,3-a]indol-9-yl)-2-(6-azaspiro[2.5]oct-6-yl)benzamide]
10 mg/kg
  inhibition rate on OVCAR3 tumor growth: 94%-98%

## COc1ccc(NC(=O)c2ccc(NS(=O)(=O)CCO)cc2N2CCC(=C(F)F)CC2)c2cc3n(c12)CC(C)(C)OC3 [Example 465, 2-(4-(difluoromethylene)piperidin-1-yl)-4-((2-hydroxyethyl)sulfonamido)-N-(6-methoxy-3,3-dimethyl-3,4-dihydro-1H-[1,4]oxazinyl[4,3-a]indol-9-yl)benzamide]
10 mg/kg
  inhibition rate on OVCAR3 tumor growth: 60%-70%

## CC1(C)Cn2c(cc3c(NC(=O)c4ccc(NS(=O)(=O)CCO)cc4N4CCC5(CC4)CC5)cccc32)CO1 [Example 371, N-(3,3-dimethyl-3,4-dihydro-1H-[1,4]oxazino[4,3-a]indol-9-yl)-4-(2-hydroxyethylsulfonamido)-2-(6-azaspiro[2.5]octan-6-yl)benzamide]
10 mg/kg
  inhibition rate on OVCAR3 tumor growth: 94%-98%
30 mg/kg
  inhibition rate on OVCAR3 tumor growth: about 110%
